Consider 19 compounds from ChEMBL document CHEMBL1201862, “PubChem BioAssay data set” (2004).

Assay in all cases: NCI tumour cell line growth inhibition, 48 h
The subject of test [1] is BT-549.
The subject of test [2] is Hs-578T.
Test [3] has as its system MDA-N.
In test [4] the test system is DLD-1.
In test [5] the test system is RXF 631.
Test [6] concerns SNB-78.
For test [7], the system named is LXFL 529.
For test [8], the system named is T47D.
The test system of test [9] is MDA-MB-231.

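In this assay, cells in 96-well plates receive the compound at five concentrations for 48 hours. Endpoints are linearly interpolated between the surrounding concentrations. Here, GI50 denotes the concentration required for 50% inhibition of growth.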 Active and inactive are the calls of the source. No stated cut-off is given here; in the data, active = GI50 up to about 1.1 µM and inactive = higher.

For the compound `COP(=O)(OC)C(N)CCSC` (stereo unspecified), the GI50 in test [1], in [2] and in test [3] was > 100 µM (inactive) throughout.

`Cn1cc(C(=O)/C(Cl)=C(\Cl)C(=O)O)c2ccccc21`: the GI50 in test [4], in [5] and in test [6] was > 100 µM (inactive) in each case.

For the compound `Cc1c2ccnc(C(F)(F)F)c2cc2c1[nH]c1ccccc12`, the GI50 is > 125 µM (inactive) in [4] and 86.5 µM (inactive) in test [6].

On to `O=C(O)c1ccc([Se][Se]c2ccc(C(=O)O)cc2)cc1`, for which the GI50 was 34 µM (inactive) in test [4], 23 µM (inactive) in [7], 19 µM (inactive) in [5] and 18.7 µM (inactive) in test [6].

With `COc1cc(Nc2nc3cc(C(F)(F)F)ccc3n3cccc23)cc(OC)c1OC`, the GI50 was 89.5 µM (inactive) in test [1], > 100 µM (inactive) in test [2], > 100 µM (inactive) in test [3] and 2.96 µM (inactive) in test [8].

As for `CCCn1c(CN(Cc2nc3ccccc3n2CCC)Cc2nc3ccccc3n2CCC)nc2ccccc21`, the GI50 in test [1] is 5.71 µM (inactive); in test [2], 25.6 µM (inactive); in [9] it was 2.04 µM (inactive); in test [3] it was 2.26 µM (inactive); in [8] it was 2.55 µM (inactive).

Regarding `CC(O)C(O)C(N)CC=O` (stereo unspecified), the GI50 is > 500 µM (inactive) in [4] and > 482 µM (inactive) in [6].

On to `CS/C(=N\S(=O)(=O)c1ccc(Cl)cc1)NCCN/C(=N/S(=O)(=O)c1ccc(Cl)cc1)SC`, for which the GI50 in [9] and in [3] was > 100 µM (inactive) each time.

`COc1cccc(N/C(C)=C2/CCOC2=O)c1`: the GI50 was > 10 µM (inactive) in test [2], 6.56 µM (inactive) in test [9], > 10 µM (inactive) in [3] and > 10 µM (inactive) in test [8].

For `O=C1/C(=C\c2cccc(Oc3ccccc3)c2)SC(c2ccccc2)N1c1cccc([N+](=O)[O-])c1` (stereo unspecified), the GI50 in test [1] is > 100 µM (inactive); in [2], 98.9 µM (inactive); in test [9] it was > 100 µM (inactive); in test [3] it was 33.9 µM (inactive); in [8], > 100 µM (inactive).

As to `Cc1sc(Cc2ccccc2)nc1-c1ccc(N)cc1`, the results for the GI50 in [1], in test [2] and in test [9] were 28.2 µM (inactive), 20.2 µM (inactive) and 26.1 µM (inactive), respectively.

As to `CC(=O)Nc1cc2c(cc1O)CC[C@@H]1[C@@H]2CC[C@]2(C)[C@@H](O)CC[C@@H]12`, the GI50 in test [1] is 31.7 µM (inactive); in test [2], 74.1 µM (inactive); in [9], 55 µM (inactive); in test [3] it was 18.1 µM (inactive); in [8], 30.3 µM (inactive).

Regarding `O=S1(=O)CS(=O)(=O)OCCCO1`, the GI50 in test [2], in test [9], in test [3] and in test [8] was > 100 µM (inactive) in each case.

Regarding `O=C(CCl)NC(Cc1ccc(F)cc1)C(=O)O` (stereo unspecified), the GI50 is > 88.9 µM (inactive) in test [4] and > 100 µM (inactive) in test [6].

In the case of `C#C[C@]1(O)[C@@H](CO)O[C@@H](n2ccc(=O)[nH]c2=O)[C@@H]1O`, the GI50 in test [1] is 0.374 µM (active); in [2] it was 1.41 µM (inactive); in test [9], 0.251 µM (active); in test [3], 0.0822 µM (active); in [8] it was 0.0692 µM (active).

Consider `CC1(C)CCCC2(C)[C@@H]1CC[C@]13C[C@](C)(CC[C@@H]21)[C@@H]3CO` (stereo partly specified), for which the GI50 in test [4], in test [7], in test [5] and in test [6] was > 100 µM (inactive) each time.

Consider `CCCSc1ccc2[nH]c(N3C(=O)/C(=C/c4cc(OC)c(OC)c(OC)c4)N=C3c3ccccc3)cc2c1`, for which the GI50 in [1] was 10.8 µM (inactive); in test [2], 0.67 µM (active); in [9], > 37.5 µM (inactive); in test [3], 4.88 µM (inactive); in test [8], 11 µM (inactive).

In the case of `COc1cc(Nc2c3ccccc3nc3ccccc23)ccc1NS(C)(=O)=O`, the GI50 was 5.14 µM (inactive) in test [4], 4.8 µM (inactive) in [7] and 7.67 µM (inactive) in test [6].

With `O=C1C=C[C@@H](COC2OC(CO)C(O)C(O)C2O)O1` (stereo partly specified), the GI50 in test [4] is 3.35 µM (inactive).
